How the values were obtained:
[1] = tested on: P. falciparum 3D7 trophozoites; assay: microbe, parasite or virus in culture; format: cell-based, Plasmodium falciparum; settings: for Rate of increase of [Na^+]i at maximally effective concentrations: maximally effective concentration; for IC50: Plasmodium falciparum, concentration causing [Na^+]i to increase from resting value at half the maximal rate, from fitted curves, read-out: IC50 for disruption of Na^+ regulation
Procedure: P. falciparum strains 3D7, Dd2, NITD609-R^Dd2 clone #2, Dd2^attB, and Dd2^attB CAM I398F/P990R were cultured under shaking conditions as described elsewhere ([Allen and Kirk, 2010]). Cultures were synchronized 24 hr before experimentation using 5% w/v sorbitol ([Lambros and Vanderberg, 1979]). All experiments were conducted on mature trophozoite-stage parasites (36–40 hr postinvasion) functionally isolated from their host erythrocytes by permeabilization of the erythrocyte and parasitophorous vacuole membranes by brief exposure to saponin (0.05% w/v) as described previously ([Spillman et al., 2008]).
(§1) The [Na^+]i of saponin-isolated parasites was measured at 37°C using the Na^+-sensitive dye SBFI (Molecular Probes, Invitrogen) in conjunction with a PerkinElmer LS 50B Fluorescence Spectrometer fitted with a Dual Excitation Fast Filter. Saponin-isolated parasites were loaded with SBFI by suspension (at 1.40–1.80 × 10^8 cells/mL) for 20 min at 37°C in bicarbonate-free RPMI1640 supplemented with 20 mM D-glucose, 0.2 mM hypoxanthine, 25 mM HEPES, and 25 mg/L gentamycin sulfate (pH 7.10), to which SBFI-acetoxymethyl ester (5.5 μM) and Pluronic F-127 (0.01% w/v) were added. The dye-loaded cells were washed twice (12,000 × g, 0.5 min) in bicarbonate-free RPMI then incubated for a further 20 min at 37°C to allow for complete de-esterification of the dye before being resuspended at a final cell concentration of 1.5–2.5 × 10^7 cells/mL in standard saline. The dye-loaded cells were excited at 340 nm and 380 nm with fluorescence recorded at 490 nm. Calibration of the relationship between the 340/380 nm fluorescence ratio and [Na^+]i (see Figures S1A–S1C) was carried out as described previously ([Diarra et al., 2001]; [Harootunian et al., 1989]).
The initial Na^+ influx rate (at t = 0) is a × Δ[Na^+]i^max.
(§2) Dose-response curves were obtained using the expression y = y^min + y^max/(1 + [C/IC50]^b), where y is the parameter being measured (parasite proliferation, Na^+ influx, or ATPase activity), y^min is the minimum value of y, y^max is the maximum value of y, C is the concentration of the moiety that was varied in the experiment, IC50 is the concentration at which y was reduced to 50% of y^max, and b is a fitted constant.

[2] = tested on: P. falciparum trophozoites; assay: Cytosolic [Ca^2+]i in fura-2-loaded saponin-isolated parasites; format: cell-based, Plasmodium falciparum; settings: 2 μM; medium containing 1 μM Ca^2+
Procedure: [Ca^2+]i was measured with the Ca^2+-sensitive indicator fura-2 (Molecular Probes, Invitrogen) using a loading protocol identical to that described for SBFI. Calibration was performed as described previously ([Alleva and Kirk, 2001]).

[3] = tested on: P. falciparum trophozoites; assay: Recovery of [Na^+]i from an imposed intracellular Na^+ load (K^+ removal and restoration); format: cell-based, Plasmodium falciparum; settings: added with 10 mM KCl
Procedure: The mechanism responsible for the increase in [Na^+]i seen upon removal of extracellular K^+ was not investigated further here. However, the phenomenon does provide a useful means of imposing an intracellular Na^+ load on the parasite and of testing the effect of inhibitors on the net efflux of Na^+ from the Na^+-loaded parasite.
as §1, with “1989]). Several inhibitors used in this study caused inner filter effects ([Gu and Kenny, 2009]; [Srinivas and Mutharasan, 1987]); in these cases calibration curves were generated with the inhibitors present.” for “1989]).”
The rate of efflux of Na^+ from the cells, following an imposed intracellular Na^+ load, was estimated by fitting the following function to the [Na^+]i traces: [Na^+]i = Δ[Na^+]i^max × e^-at + [Na^+]i^final, where Δ[Na^+]i^max is the increase in [Na^+]i above the normal resting value (following the imposition of an intracellular Na^+-load), t is the time after the commencement of efflux (on addition of extracellular K^+), a is a fitted constant, and [Na^+]i^final is the final value of [Na^+]i. The initial Na^+ efflux rate (at t = 0) is a × Δ[Na^+]i^max, and the half-time to complete recovery (t1/2) is ln(0.5)/-a.

[4] = tested on: P. falciparum parasites; assay: Parasite proliferation, [^3H]hypoxanthine incorporation assay, 48 hr; format: cell-based; settings: Plasmodium falciparum; mean ± SEM, number of independent experiments in parentheses; read-out: IC50 for inhibition of parasite proliferation
Procedure: Parasite growth assays were performed in 96-well plates over 48 hr (commencing at the ring stage) using a standard [^3H]hypoxanthine incorporation assay ([Desjardins et al., 1979]).
as §2

[5] = tested on: P. falciparum trophozoites; assay: Cytosolic pH (pHi) in BCECF-loaded saponin-isolated parasites; format: cell-based, Plasmodium falciparum
Procedure: pHi of saponin-isolated parasites was measured using the pH-sensitive indicator BCECF (Molecular Probes, Invitrogen) as described previously ([Saliba and Kirk, 1999]). […] Critical experiments performed using SBFI-loaded parasites were repeated with parasites loaded with BCECF.

[6] = 10 μM, on the timescale of the experiments

Molecule: CC(=O)C1=C(O)[C@@H]2[C@H]3c4c[nH]c5cccc(c45)C[C@H]3C(C)(C)N2C1=O [CPA, cyclopiazonic acid, reference compound]
- Effect on [Na^+]i ([1]; 40 μM): caused [Na^+]i to increase
- Effect on [Ca^2+]i [2]: transient increase in [Ca^2+]i

Molecule: CCN(c1nc(N)c(C(=O)NC(=N)N)nc1Cl)C(C)C [EIPA, ethylisopropylamiloride, reference compound]
- Effect on resting [Na^+]i ([1]; 20 μM): Neither the Na^+/H^+ exchanger inhibitor ethylisopropylamiloride (EIPA; 20 μM) nor the Na^+/K^+-ATPase inhibitor ouabain (2 mM) had a significant effect
- Effect on recovery of [Na^+]i after Na^+ load ([3]; 20 μM): unaffected

Molecule: NS(=O)(=O)c1cc(C(=O)O)c(NCc2ccco2)cc1Cl [Furosemide, reference compound]
- Effect on recovery of [Na^+]i after Na^+ load ([3]; 100 μM): slowed

Molecule: C[C@@H]1CCc2c([nH]c3ccccc23)[C@]2(N1)C(=O)Nc1ccc(Br)cc12 [NITD138]
- IC50 [4]: 2300 ± 200 nM
- Effect on resting [Na^+]i ([1]; 50 nM, 3D7, standard saline): little effect
- Rate of increase of [Na^+]i at maximally effective concentrations [1]: did not reach the maximum value at the highest concentration tested

Molecule: C[C@H]1CCc2c([nH]c3ccccc23)[C@@]2(N1)C(=O)Nc1ccc(Br)cc12 [NITD139]
- IC50 [4]: 4 ± 0.9 nM
- Effect on resting [Na^+]i ([1]; 50 nM, 3D7, standard saline): immediate rapid increase in [Na^+]i
- IC50 ([1]; 3D7, standard saline): 16.6 ± 5.7 nM
- Rate of increase of [Na^+]i at maximally effective concentrations [1]: 0.098 ± 0.007 mM/s

Molecule: C[C@@H]1Cc2c([nH]c3cc(F)c(F)cc23)[C@]2(N1)C(=O)Nc1ccc(Cl)cc12 [NITD247]
- IC50 [4]: 41.6 ± 5.8 nM
- Effect on resting [Na^+]i ([1]; 50 nM, 3D7, standard saline): little effect
- IC50 ([1]; 3D7, standard saline): 407 ± 117 nM
- Rate of increase of [Na^+]i at maximally effective concentrations [1]: 0.125 ± 0.013 mM/s

Molecule: [Na+].[Na+].[Na+].[O]=[V]([O-])([O-])[O-] [Sodium orthovanadate, reference compound]
- Effect on [Na^+]i ([1]; 100 μM): prolonged time-dependent increase
- Rate of increase of [Na^+]i ([1]; 500 μM, n = 4): 0.13 ± 0.03 mM/s
- Cytosolic pH (pHi) after addition ([5]; 100 μM, Na^+-dependent, increase from 7.28 ± 0.03, n = 6, p = 0.024): 7.36 ± 0.03

Molecule: C[C@@H]1CC[C@H]2[C@@H](C)C(=O)O[C@@H]3O[C@@]4(C)CC[C@@H]1[C@]32OO4 [artemisinin, reference compound]
- Effect on [Na^+]i [1, 6]: no effect

Molecule: CCN(CC)CCCC(C)Nc1ccnc2cc(Cl)ccc12 (stereo not shown) [chloroquine, reference compound]
- Effect on [Na^+]i [1, 6]: no effect

Molecule: C/C=C/[C@H]1O[C@@](O)([C@@H](C)[C@H](O)[C@H](C)[C@H]2OC(=O)/C(OC)=C/C(C)=C/[C@@H](C)[C@@H](O)[C@@H](CC)[C@@H](O)[C@H](C)C/C(C)=C/C=C/[C@@H]2OC)C[C@@H](O[C@H]2C[C@@H](O)[C@H](OC(N)=O)[C@@H](C)O2)[C@@H]1C [concanamycin A, reference compound]
- Effect on pHi of parasites after NITD246- or orthovanadate-induced alkalinisation ([5]; 75 nM, pHi decreasing to below its normal resting value): immediate reversal of the alkalinisation

Molecule: C[C@@H]1O[C@@H](O[C@H]2C[C@@H](O)[C@]3(CO)[C@H]4[C@H](O)C[C@]5(C)[C@@H](C6=CC(=O)OC6)CC[C@]5(O)[C@@H]4CC[C@]3(O)C2)[C@H](O)[C@H](O)[C@H]1O [ouabain, reference compound]
- Effect on resting [Na^+]i ([1]; 2 mM): nor the Na^+/K^+-ATPase inhibitor ouabain (2 mM) had a significant effect

Molecule: C/C=C(/C)C(=O)O[C@H]1C(C)=C2[C@H]([C@@H]1OC(=O)CCCCCCC)[C@@](C)(OC(C)=O)C[C@H](OC(=O)CCC)[C@@]1(O)[C@H]2OC(=O)[C@@]1(C)O [thapsigargin, reference compound]
- Effect on [Na^+]i ([1]; 2 μM): little effect

Molecule: Gramicidin [reference compound]
- Effect on [Na^+]i ([1]; 5 μM, [Na^+]o 125 mM): rapid increase in [Na^+]i

Source: publication PMC3574224, “Na^+ Regulation in the Malaria Parasite Plasmodiumfalciparum Involves the Cation ATPase PfATP4 and Is a Target of the Spiroindolone Antimalarials” (Cell Host & Microbe, 2013)
